Experimental data taken from patent publication US20240299382A1, “COMPOUNDS AND METHODS FOR DEGRADING RCOR1, LSD1, HDAC1 AND HDAC2 IN THE COREST” (University of Florida Research Foundation, Inc., priority 2021, published 2024).
Entries after “also recorded” stand apart in the source; their conditions may differ. Like-named read-outs stand apart in the source and are kept apart here. One block for each molecule: values may come before it.

Assays:
[1] = target: T1, LSD1 (Homo sapiens, UniProt O60341); test: Western blotting of protein levels in MCF7 cells; format: cell-based; settings: for LSD1 protein level / degradation of LSD1: MCF7 cells; for LSD1 protein level: indicated concentrations, 14 hours; for degradation of LSD1: 10 μM, 6 hours, Western blotting
T1 construct: Cells were then lysed and subjected to Western blotting with antibodies against the indicated proteins; endogenous in cells; host or cells: MCF7
Procedure: (§1) […] Cells were pretreated with the proteasomal inhibitor MG132 (MG, 3 μM) or the neddylation inhibitor MLN4924 (MLN, 1 μM) for 2 hours. Cells were then lysed and subjected to Western blotting with antibodies against the indicated proteins. The levels of RCOR1 were normalized against that of tubulin and shown as % of DMSO control.
(§2) Cells were pretreated with the proteasomal inhibitor MG132 (MG, 3 μM) or the neddylation inhibitor MLN4924 (MLN, 1 μM) for 2 hours. Cells were then lysed and subjected to Western blotting with antibodies against the indicated proteins. The levels of RCOR1 and LSD1 were normalized against that of tubulin and shown as % of DMSO control.

[2] = target: T2, RCOR1 (Homo sapiens, UniProt Q9UKL0); test: Western blotting of protein levels in MCF7 cells; format: cell-based; settings: for RCOR1 protein level: indicated concentrations; for degradation of RCOR1: 10 μM, 6 hours, Western blotting
T2 construct: Cells were then lysed and subjected to Western blotting with antibodies against the indicated proteins; endogenous in cells; host or cells: MCF7
Procedure: as §1, §2

[3] = target: T3, HDAC2 (Homo sapiens, UniProt Q92769); test: Western blotting of protein levels in MCF7 cells; format: cell-based; settings: for degradation of HDAC2: 10 μM, 6 hours, Western blotting
T3 construct: endogenous in cells; host or cells: MCF7
Procedure: (§3) MCF7 cells were exposed to DMSO or the indicated compounds (10 μM) for 6 hours. Cells were pretreated with the proteasomal inhibitor MG132 (MG, 3 μM) or the neddylation inhibitor MLN4924 (MLN, 1 μM) for 2 hours. Cells were then lysed and subjected to Western blotting with antibodies against the indicated proteins. The levels of RCOR1 were normalized against that of tubulin and shown as % of DMSO control.
as §3, with “DMSO, SR-4370 and other compounds at” for “DMSO or”, “concentrations” for “compounds (10 μM)”, “14” for “6”, “RCOR1 and LSD1” for “RCOR1”

[4] = target: T4, HDAC1 (Homo sapiens, UniProt Q13547); test: Western blotting of protein levels in MCF7 cells; format: cell-based; settings: for degradation of HDAC1: 10 μM, 6 hours, Western blotting
T4 construct: endogenous in cells; host or cells: MCF7
Procedure: as §3
as §3, with “DMSO, SR-4370 and other compounds at” for “DMSO or”, “concentrations” for “compounds (10 μM)”, “14” for “6”, “RCOR1 and LSD1” for “RCOR1”

[5] = mice, 50 mg/kg orally; cited from earlier work
[6] = Blood chemistry tests in tumor-bearing athymic mice
[7] = tested on: MDA-MB-231 xenograft tumors; orthotopic EMT6 and 4T1 mouse breast tumors; test: In vivo efficacy in breast tumor models; settings: mice bearing MDA-MB-231 xenograft, EMT6 or 4T1 tumors
Procedure: Female athymic mice bearing the MDA-MB-231 xenograft tumors were dosed with vehicle or SR-4370 (FIG. 3A). Tumor volumes and final tumor weights are plotted (average±SD). *: p<0.05, **: p<0.01 (FIGS. 3B and 3C). Female BALB/c mice bearing the orthotopic EMT6 (FIG. 3B) and 4T1 (FIG. 3C) mouse breast tumors were dosed with SR-4370 as in (FIG. 3A). At the endpoint, tumors were removed from euthanized mice and weighed. The tumor weight plots are shown (average±SD). The p values were calculated based on t test.

[8] = tested on: BC cell lines; test: Colony formation, continuous treatment for 15 days; format: cell-based; settings: continuous treatment 15 days, colonies; compared to UF010
Procedure: (§4) MDA-MB-231 and T47D cells were treated with the indicated compounds for four days (FIG. 5A). Viability assays were done using CellTiter-Glo. Shown are normalized values vs. vehicle±SEM (n=3). IC50 values are calculated using Prism 6. Note that SR-3460 has no HDACi activity. Cells were seeded and then continuously treated with SR-4370 or UF010 at the indicated concentrations for 15 days. Colonies were fixed and stained (FIG. 5B).

[9] = Tolerability and body weights of tumor-bearing mice dosed with SR-4370
Procedure: Female BALB/c mice bearing the EMT6 tumors were dosed with vehicle or SR-4370 (50 mg/kg) via intraperitoneal injection.
(§5) In vivo tolerability of UF010, the first identified compound of the benzoylhydrazide HDACi class, was evaluated in mice. […] We conducted pilot experiments to evaluate PK parameters of UF010. As with the MTD experiment, mice were dosed orally at 80 mg/kg. Plasma samples were collected at various time points and the amount of UF010 was determined.

[10] = tested on: MDA-MB-231 and T47D cells; test: Viability assay using CellTiter-Glo, four days; format: cell-based; settings: SR-4370 compared to UF010
Procedure: as §4

[11] = tested on: MTA2; test: Western blotting of protein levels in MCF7 cells; format: cell-based; settings: 14 hours
Procedure: as §3, with “DMSO, SR-4370 and other compounds at” for “DMSO or”, “concentrations” for “compounds (10 μM)”, “14” for “6”, “RCOR1 and LSD1” for “RCOR1”

[12] = target: T5, HDAC8 (Homo sapiens, UniProt Q9BY41); test: Western blotting of protein levels in MCF7 cells; format: cell-based; settings: 14 hours
T5 construct: endogenous in cells; host or cells: MCF7
T5 sequence (Q9BY41 1-377): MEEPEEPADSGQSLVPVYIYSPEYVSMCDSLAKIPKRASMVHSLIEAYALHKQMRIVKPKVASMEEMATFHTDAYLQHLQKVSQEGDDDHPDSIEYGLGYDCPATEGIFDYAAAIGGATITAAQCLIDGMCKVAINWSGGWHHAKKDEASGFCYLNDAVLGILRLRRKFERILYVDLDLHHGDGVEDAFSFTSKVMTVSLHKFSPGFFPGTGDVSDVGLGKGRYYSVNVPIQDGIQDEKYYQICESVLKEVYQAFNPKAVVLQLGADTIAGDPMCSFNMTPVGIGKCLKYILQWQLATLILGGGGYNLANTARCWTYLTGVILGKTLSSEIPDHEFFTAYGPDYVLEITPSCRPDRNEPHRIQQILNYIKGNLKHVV
Procedure: as §3, with “DMSO, SR-4370 and other compounds at” for “DMSO or”, “concentrations” for “compounds (10 μM)”, “14” for “6”, “RCOR1 and LSD1” for “RCOR1”

[13] = tested on: RBBP4; test: Western blotting of protein levels in MCF7 cells; format: cell-based; settings: 14 hours
Procedure: as §3, with “DMSO, SR-4370 and other compounds at” for “DMSO or”, “concentrations” for “compounds (10 μM)”, “14” for “6”, “RCOR1 and LSD1” for “RCOR1”

[14] = target: T6, HDAC3 (Homo sapiens, UniProt O15379); test: Western blotting of protein levels in MCF7 cells; format: cell-based; settings: 14 hours
T6 construct: endogenous in cells; host or cells: MCF7
Procedure: as §3, with “DMSO, SR-4370 and other compounds at” for “DMSO or”, “concentrations” for “compounds (10 μM)”, “14” for “6”, “RCOR1 and LSD1” for “RCOR1”

[15] = tested on: LSD2; test: Western blotting of protein levels in MCF7 cells; format: cell-based; settings: 14 hours
Procedure: as §3, with “DMSO, SR-4370 and other compounds at” for “DMSO or”, “concentrations” for “compounds (10 μM)”, “14” for “6”, “RCOR1 and LSD1” for “RCOR1”

[16] = tested on: RCOR3; test: Western blotting of protein levels in MCF7 cells; format: cell-based; settings: 14 hours
Procedure: as §3, with “DMSO, SR-4370 and other compounds at” for “DMSO or”, “concentrations” for “compounds (10 μM)”, “14” for “6”, “RCOR1 and LSD1” for “RCOR1”

[17] = tested on: RCOR2; test: Western blotting of protein levels in MCF7 cells; format: cell-based; settings: 14 hours
Procedure: as §3, with “DMSO, SR-4370 and other compounds at” for “DMSO or”, “concentrations” for “compounds (10 μM)”, “14” for “6”, “RCOR1 and LSD1” for “RCOR1”

[18] = data from ref 80; cited from earlier work
[19] = In vivo tolerability / MTD of UF010, oral dosing; settings: mice, oral dosing up to 80 mg/kg
Procedure: as §5

[20] = tested on: HDACs; test: HDAC inhibition (HDACi activity); format: biochemical
[21] = PK parameters after oral dosing in mice; settings: 80 mg/kg orally
Procedure: as §5

[22] = tumor-bearing athymic mice, average ± SD, n = 6
[23] = tumor-bearing mice at the endpoint
[24] = indicated concentrations, 14 hours
[25] = MCF7 cells pretreated with MLN4924 (1 μM) or MG132 (3 μM) for 2 hours

T2 sequence (Q9UKL0 whole entry): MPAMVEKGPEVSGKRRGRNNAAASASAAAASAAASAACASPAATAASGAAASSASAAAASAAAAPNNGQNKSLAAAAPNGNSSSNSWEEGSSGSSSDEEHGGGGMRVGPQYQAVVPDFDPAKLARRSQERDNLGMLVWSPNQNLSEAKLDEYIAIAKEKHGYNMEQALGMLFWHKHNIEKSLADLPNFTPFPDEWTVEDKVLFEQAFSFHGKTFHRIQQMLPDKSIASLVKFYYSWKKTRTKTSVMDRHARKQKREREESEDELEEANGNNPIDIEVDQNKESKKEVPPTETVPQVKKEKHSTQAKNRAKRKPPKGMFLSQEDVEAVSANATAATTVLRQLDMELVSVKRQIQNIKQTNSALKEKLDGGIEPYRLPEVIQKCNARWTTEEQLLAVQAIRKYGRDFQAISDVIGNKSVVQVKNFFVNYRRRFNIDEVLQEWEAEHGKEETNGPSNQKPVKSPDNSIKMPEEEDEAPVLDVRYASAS
T3 sequence (Q92769 whole entry): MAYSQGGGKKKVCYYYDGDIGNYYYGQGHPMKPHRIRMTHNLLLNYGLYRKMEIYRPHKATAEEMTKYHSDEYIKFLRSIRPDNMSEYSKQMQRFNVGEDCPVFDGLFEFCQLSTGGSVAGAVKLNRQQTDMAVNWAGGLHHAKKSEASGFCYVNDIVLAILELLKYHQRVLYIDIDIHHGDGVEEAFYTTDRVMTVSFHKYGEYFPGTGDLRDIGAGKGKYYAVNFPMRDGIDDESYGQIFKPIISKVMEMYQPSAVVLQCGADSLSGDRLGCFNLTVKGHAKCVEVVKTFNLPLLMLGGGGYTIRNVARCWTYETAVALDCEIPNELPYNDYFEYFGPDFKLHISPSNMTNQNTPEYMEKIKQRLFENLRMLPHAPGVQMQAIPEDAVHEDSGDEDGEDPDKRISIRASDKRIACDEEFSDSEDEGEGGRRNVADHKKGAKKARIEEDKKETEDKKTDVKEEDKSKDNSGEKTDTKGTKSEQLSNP
T4 sequence (Q13547 whole entry): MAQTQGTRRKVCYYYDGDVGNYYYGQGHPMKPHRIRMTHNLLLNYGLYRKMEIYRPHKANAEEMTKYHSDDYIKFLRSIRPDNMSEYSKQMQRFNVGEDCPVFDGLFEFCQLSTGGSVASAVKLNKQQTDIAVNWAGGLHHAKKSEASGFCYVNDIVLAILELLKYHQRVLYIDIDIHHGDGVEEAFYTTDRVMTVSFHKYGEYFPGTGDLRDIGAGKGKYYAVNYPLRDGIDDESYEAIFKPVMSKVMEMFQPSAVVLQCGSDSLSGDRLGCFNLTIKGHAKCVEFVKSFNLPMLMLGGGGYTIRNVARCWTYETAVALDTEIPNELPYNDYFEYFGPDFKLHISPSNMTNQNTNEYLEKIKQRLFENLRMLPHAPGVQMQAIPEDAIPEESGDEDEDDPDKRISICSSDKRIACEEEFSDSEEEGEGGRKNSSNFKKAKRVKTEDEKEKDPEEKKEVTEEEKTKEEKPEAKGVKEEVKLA
T6 sequence (O15379 whole entry): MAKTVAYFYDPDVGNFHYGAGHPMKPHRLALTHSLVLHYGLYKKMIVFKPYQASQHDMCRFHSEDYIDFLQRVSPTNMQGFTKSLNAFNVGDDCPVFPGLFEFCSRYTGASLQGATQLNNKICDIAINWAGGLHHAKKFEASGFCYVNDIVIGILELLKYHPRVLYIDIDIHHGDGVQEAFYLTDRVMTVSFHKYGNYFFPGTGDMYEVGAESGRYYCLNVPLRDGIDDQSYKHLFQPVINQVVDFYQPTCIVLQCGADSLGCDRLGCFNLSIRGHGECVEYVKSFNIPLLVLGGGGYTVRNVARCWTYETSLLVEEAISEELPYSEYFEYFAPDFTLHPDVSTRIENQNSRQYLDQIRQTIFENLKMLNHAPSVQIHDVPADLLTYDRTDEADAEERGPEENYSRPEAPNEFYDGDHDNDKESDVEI

LSD1 protein level [1]: moderately increased
RCOR1 protein level ([2]; MCF7 cells, 14 hours): notably increased
Structure (SMILES): O=C(/C=C/c1cccc(S(=O)(=O)Nc2ccccc2)c1)NO [belinostat, reference compound]

LSD1 protein level [1]: slightly reduced
RCOR1 protein level ([2]; MCF7 cells, 14 hours): notably increased
Structure (SMILES): O=C(CCCCCCC(=O)Nc1ccccc1)NO [vorinostat, reference compound]

Structure (SMILES): CCCCNNC(=O)c1ccc(-c2cncnc2)cc1 [SR-4369]
degradation of HDAC2 [3]: can degrade
degradation of HDAC1 [4]: can degrade
degradation of LSD1 [1]: can degrade
degradation of RCOR1 ([2]; MCF7 cells): can degrade

Structure (SMILES): Cc1ccc(NC(=O)CCCCCC(=O)Nc2ccccc2N)cc1 [4b]
AUC [5]: 1.08 µM·h
Cmax [5]: 1.13 µM
T1/2 [5]: 2.76 h
Tmax [5]: 0.25 h

Structure (SMILES): CCCCNNC(=O)c1ccc(-c2cccc(F)c2F)cc1 [SR-4370]
ALP [6, 22]: 49.5 (±8.78) U/L
ALT [6, 22]: 71.60 (±14.06) U/L
BUN [6, 22]: 22.0 (±3.16) mg/dL
Calcium [6, 22]: 8.45 (±0.85) mg/dL
Chloride [6, 22]: 110.0 (±2.17) mmol/L
Cholesterol [6, 22]: 113.0 (±15.92) mg/dL
Creatinine [6, 22]: 0.1 (±0.044) mg/dL
Glucose [6, 22]: 221.17 (±60.6) mg/dL
Phosphorus [6, 22]: 9.73 (±2.69) mg/dL
Potassium [6, 22]: 8.75 (±1.82) mmol/L
Sodium [6, 22]: 147.33 (±1.51) mmol/L
Total bilirubin [6, 22]: 0.25 (±0.054) mg/dL
Total protein [6, 22]: 4.95 (±0.217) g/dL
liver or kidney toxicities [6, 23]: no signs of liver or kidney toxicities
serum concentrations of various analytes versus reference ranges [6, 23]: within reference ranges
anticancer effects in vivo (tumor volumes, tumor weights) [7]: potent anticancer effects
degradation of HDAC2 [3]: can degrade
HDAC2 protein level [3, 24]: potent and dose-dependent degradation; also recorded: only moderately reduced at a higher concentration
degradation of HDAC1 [4]: can degrade
HDAC1 protein level [4, 24]: potent and dose-dependent degradation; also recorded: only moderately reduced at a higher concentration
cytotoxic effects, long-term treatment [8]: more potent cytotoxic effects
tolerability ([9]; SR-4370 up to 50 mg/kg, mice, in vivo efficacy study): completely tolerated
body weights during the treatment period ([9]; tumor-bearing mice, BALB/c mice with EMT6 tumors, 50 mg/kg intraperitoneal, 50 mg/kg): not affected; also recorded: safe as judged by body weights
cytotoxic effects / BC cell growth, short-term treatment [10]: more potent cytotoxic effects
downregulation of LSD1 under neddylation or proteasome inhibition [1, 25]: completely reversed
degradation of LSD1 [1]: can degrade
LSD1 protein level [1]: potent and dose-dependent degradation
downregulation of RCOR1 under neddylation or proteasome inhibition [2, 25]: completely reversed
degradation of RCOR1 ([2]; MCF7 cells): can degrade
DC50 ([2]; MCF7 cells, 14 hours, read-out: DC50 (concentration at which 50% of the target protein is degraded) for RCOR1): < 0.1 µM
RCOR1 protein level ([2]; MCF7 cells, 14 hours): potent and dose-dependent degradation
MTA2 protein level [11]: only moderately reduced at a higher concentration
HDAC8 protein level [12]: did not affect
RBBP4 protein level [13]: largely unaffected
HDAC3 protein level [14]: did not affect
LSD2 protein level [15]: largely unaffected
RCOR3 protein level [16]: largely without affecting
RCOR2 protein level [17]: largely without affecting

Structure (SMILES): CCCCNNC(=O)c1ccc(-c2ccccc2)cc1 [SR-3558]
degradation of HDAC2 [3]: can degrade
degradation of HDAC1 [4]: can degrade
degradation of LSD1 [1]: can degrade
degradation of RCOR1 ([2]; MCF7 cells): can degrade

Structure (SMILES): CCCCNNC(=O)c1ccc(-c2cc(C)cc(F)c2)cc1 [SR-4372]
degradation of HDAC2 [3]: can degrade
degradation of HDAC1 [4]: can degrade
degradation of LSD1 [1]: can degrade
degradation of RCOR1 ([2]; MCF7 cells): can degrade

Structure (SMILES): Nc1ccccc1NC(=O)c1ccc(CNC(=O)OCc2cccnc2)cc1 [entinostat, reference compound]
T1/2 [18]: ~1 h
LSD1 protein level [1]: slightly reduced
RCOR1 protein level ([2]; MCF7 cells, 14 hours): notably increased

Structure (SMILES): CCCCNNC(=O)c1ccc(Br)cc1 [UF010]
in vivo tolerability [19]: completely tolerated without any signs of toxicity or loss of body weight
HDACi activity [20]: potent HDACi
degradation of HDAC2 [3]: completely inactive
degradation of HDAC1 [4]: completely inactive
oral bioavailability [21]: bioavailable orally
AUC ([21]; plasma): 6.07 µM·h
Cmax ([21]; plasma): 5.95 µM
T1/2 ([21]; plasma): 1.24 h
Tmax ([21]; plasma): 0.25 h
degradation of LSD1 [1]: completely inactive
degradation of RCOR1 ([2]; MCF7 cells): completely inactive

Structure (SMILES): CCCCNNC(=O)c1ccccc1-c1ccccc1 [SR-3460]
HDACi activity [20]: does not inhibit HDACs
cytotoxic effects / BC cell growth, short-term treatment [10]: did not inhibit BC cell growth
